Data: patent publication US20100167275A1, “Potassium channel mutants of the yeast Saccharomyces cerevisiae and their use for screening eukaryotic potassium channels” (sanofi-aventis Deutschland GmbH, priority 2000, published 2010)
“And” between values parts separate entries of the source, which are not always exact repeats. Identical values can stand only once. Like-named read-outs stand apart in the source and are kept apart here.

Assays:
[1] = tested on: Saccharomyces cerevisiae wild-type strain; type: cell-based
Description: (§1) FIG. 9: Growth of the Saccharomyces cerevisiae wild-type strain in DPM-HIS/-TRP 5 mM KCl medium in 96-well ELISA plates in the presence of 0.5 mM CsCl. The various inhibitors were employed at a final concentration of in each case 30 μM. To measure the cell density, a commercially available LacZ reporter system pYX232 by Ingenius (cat. No. MBV-032-10) was transformed into the yeast strains to be studied. Expression of the LacZ reporter gene was under the control of the constitutive Saccharomyces cerevisiae promotor TPI for the triose phosphate isomerase gene. The LacZ enzyme activity was measured via detecting the luminescence after 24 hours' growth (density of the starter culture: 0.01 OD620) using a commercially available assay system by TROPIX.
The values correspond to the average of in each case 4 measurements±SD. The two different assays were carried out independently of each other on two different days.
(§2) All substances, dissolved in DMSO, were employed in a final concentration of 30 μM. As a control, cells were measured with the same final concentration of 0.5% DMSO without substance, without DMSO addition or without substance.

[2] = tested on: Saccharomyces cerevisiae wild-type strain; assay: Growth of wild-type strain in DPM medium with 5 mM or 80 mM KCl, OD 620 nm; type: cell-based; settings: 30 μM; for toxic effect on yeast cells (Saccharomyces cerevisiae): growth medium containing 80 mM KCl; for growth OD 620 nm, 5 mM KCl, measurement 1 / growth OD 620 nm, 5 mM KCl, measurement 2 / growth OD 620 nm, 5 mM KCl, measurement 3 / growth OD 620 nm, 5 mM KCl, measurement 4 / 5 mM KCl (average growth, OD 620 nm) / growth OD 620 nm, 80 mM KCl, measurement 1 / growth OD 620 nm, 80 mM KCl, measurement 2 / growth OD 620 nm, 80 mM KCl, measurement 3 / growth OD 620 nm, 80 mM KCl, measurement 4 / 80 mM KCl (average growth, OD 620 nm): wild-type cells, DPM, 24 hours growth, starting culture 0.01 OD; for 5 mM KCl (average growth, OD 620 nm) / 80 mM KCl (average growth, OD 620 nm): average of 4
Excerpt: However, the present results could not exclude that the inhibitory effect found for these substances can possibly also be attributed to an inhibition of other proteins which are essential for the growth of yeast cells. […]

[3] = biological target: human potassium channel HERG1 (Homo sapiens, UniProt Q12809)
human potassium channel HERG1, sequence (Q12809 whole entry): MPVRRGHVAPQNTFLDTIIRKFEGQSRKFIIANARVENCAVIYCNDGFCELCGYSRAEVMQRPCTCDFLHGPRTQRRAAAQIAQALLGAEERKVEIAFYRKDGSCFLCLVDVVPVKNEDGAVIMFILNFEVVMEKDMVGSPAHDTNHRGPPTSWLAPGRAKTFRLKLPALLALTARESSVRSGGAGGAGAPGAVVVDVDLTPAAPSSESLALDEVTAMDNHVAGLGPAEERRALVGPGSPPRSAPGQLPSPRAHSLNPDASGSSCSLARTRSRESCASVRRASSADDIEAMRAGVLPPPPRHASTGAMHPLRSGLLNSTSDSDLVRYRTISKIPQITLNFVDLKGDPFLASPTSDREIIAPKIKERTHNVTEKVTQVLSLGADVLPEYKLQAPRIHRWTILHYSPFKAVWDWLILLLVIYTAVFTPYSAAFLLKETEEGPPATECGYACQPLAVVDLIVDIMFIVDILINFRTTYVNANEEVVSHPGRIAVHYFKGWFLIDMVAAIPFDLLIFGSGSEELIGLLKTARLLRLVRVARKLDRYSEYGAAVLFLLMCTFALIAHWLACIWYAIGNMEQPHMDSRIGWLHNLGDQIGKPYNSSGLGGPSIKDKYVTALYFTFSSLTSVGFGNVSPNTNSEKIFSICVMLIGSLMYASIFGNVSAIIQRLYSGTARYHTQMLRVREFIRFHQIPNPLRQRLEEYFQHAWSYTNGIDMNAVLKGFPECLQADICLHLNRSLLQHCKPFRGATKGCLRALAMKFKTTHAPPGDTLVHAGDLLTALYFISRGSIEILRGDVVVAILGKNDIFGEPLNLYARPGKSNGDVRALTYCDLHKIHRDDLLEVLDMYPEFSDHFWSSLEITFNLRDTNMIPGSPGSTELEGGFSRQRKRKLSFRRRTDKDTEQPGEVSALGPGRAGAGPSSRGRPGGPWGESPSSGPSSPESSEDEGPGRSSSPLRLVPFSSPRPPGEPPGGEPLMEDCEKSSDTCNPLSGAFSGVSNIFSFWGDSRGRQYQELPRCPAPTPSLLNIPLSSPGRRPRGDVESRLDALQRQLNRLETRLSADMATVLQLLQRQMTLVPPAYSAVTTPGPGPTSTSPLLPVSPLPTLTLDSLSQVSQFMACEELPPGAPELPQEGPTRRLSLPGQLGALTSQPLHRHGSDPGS
Description: FIG. 7: Expression of the human potassium channel HERG1 in the triple mutant Δtrk1Δtrk2Δtok1 in DPM-HIS/-TRP 5 mM KCl medium in 96-well ELISA plates in the presence of 0.5 mM CsCl as activator.
as §1, with “The” for “FIG. 9: Growth of the Saccharomyces cerevisiae wild-type strain in DPM-HIS/-TRP 5 mM KCl medium in 96-well ELISA plates in the presence of 0.5 mM CsCl. The”, “TROPIX. The values correspond to the average of in each case 4 measurements±SD. The two different assays were carried out independently of each other on two different days.” for “TROPIX.”
FIG. 8: Expression of the human potassium channel HERG1 in the triple mutant Δtrk1Δtrk2Δtok1 in DPM-HIS 5 mM KCl medium in 96-well ELISA plates in the presence of 0.5 mM CsCl as activator.
The various inhibitors were employed at a final concentration of in each case 30 μM. The cell density was measured after 38 hours' growth (density of the starter culture: 0.03 OD620) via determination of the optical density at a wavelength of 620 nm. The values corresponded to the average of in each case 4 measurements±SD.
All growth assays in the triple mutant Δtrk1Δtrk2Δtok1 were carried out in growth medium DPM (defined potassium medium) at the pH and the potassium concentration stated in each case.
as §2

[4] = 30 μM, wild-type cells, DPM -HIS/-TRP, 0.5 mM CsCl, 24 hours growth, TROPIX kit, ASSAY 1
[5] = 30 μM, wild-type cells, DPM -HIS/-TRP, 0.5 mM CsCl, 24 hours growth, TROPIX kit, ASSAY 1, mean of 4
[6] = 30 μM, wild-type cells, DPM -HIS/-TRP, 0.5 mM CsCl, 24 hours growth, TROPIX kit, ASSAY 2
[7] = 30 μM, wild-type cells, DPM -HIS/-TRP, 0.5 mM CsCl, 24 hours growth, TROPIX kit, ASSAY 2, mean of 4

SMILES: CN(C)CCOC(c1ccccc1)c1ccccc1 [Diphenhydramine]
- Exp. 1 (LacZ luminescence), ASSAY 1 [1, 4]: 2806
- Exp. 2 (LacZ luminescence), ASSAY 1 [1, 4]: 3161
- Exp. 3 (LacZ luminescence), ASSAY 1 [1, 4]: 4178
- Exp. 4 (LacZ luminescence), ASSAY 1 [1, 4]: 4884
- Mean growth (LacZ luminescence), ASSAY 1 [1, 5]: 3757.25
- Exp. 1 (LacZ luminescence), ASSAY 2 [1, 6]: 3468
- Exp. 2 (LacZ luminescence), ASSAY 2 [1, 6]: 2980
- Exp. 3 (LacZ luminescence), ASSAY 2 [1, 6]: 3062
- Exp. 4 (LacZ luminescence), ASSAY 2 [1, 6]: 3581
- Mean growth (LacZ luminescence), ASSAY 2 [1, 7]: 3267.75

SMILES: CCOC(=O)N1CCC(=C2c3ccc(Cl)cc3CCc3cccnc32)CC1 [Loratadine, ethyl 4-(8-chloro-5,6-dihydro-11H-benzo[5,6]cyclohepta[1,2-b]pyridin-11-ylidene)-1-piperidinecarboxytate]
- Exp. 1 (LacZ luminescence), ASSAY 1 [1, 4]: 4905
- Exp. 2 (LacZ luminescence), ASSAY 1 [1, 4]: 5141
- Exp. 3 (LacZ luminescence), ASSAY 1 [1, 4]: 1857
- Exp. 4 (LacZ luminescence), ASSAY 1 [1, 4]: 3266
- Mean growth (LacZ luminescence), ASSAY 1 [1, 5]: 3792.25
- Exp. 1 (LacZ luminescence), ASSAY 2 [1, 6]: 3553
- Exp. 2 (LacZ luminescence), ASSAY 2 [1, 6]: 1965
- Exp. 3 (LacZ luminescence), ASSAY 2 [1, 6]: 3590
- Exp. 4 (LacZ luminescence), ASSAY 2 [1, 6]: 2478
- Mean growth (LacZ luminescence), ASSAY 2 [1, 7]: 2896.5

SMILES: O=c1[nH]c2ccccc2n1C1CCN(CCCC(c2ccc(F)cc2)c2ccc(F)cc2)CC1 [Pimozide, 1-(4,4-bis(P-fluorophenyl)butyl)-4-(2-oxo-1-benzimidazolinyl)-piperidine]
- toxic effect on yeast cells (Saccharomyces cerevisiae) ([2]; FIG. 10): no generally toxic effect
- growth OD 620 nm, 5 mM KCl, measurement 1 [2]: 0.904
- growth OD 620 nm, 5 mM KCl, measurement 2 [2]: 0.823
- growth OD 620 nm, 5 mM KCl, measurement 3 [2]: 0.305
- growth OD 620 nm, 5 mM KCl, measurement 4 [2]: 0.614
- 5 mM KCl (average growth, OD 620 nm) [2]: 0.6615
- growth OD 620 nm, 80 mM KCl, measurement 1 ([2]; 80 mM KCl): 3.673
- growth OD 620 nm, 80 mM KCl, measurement 2 ([2]; 80 mM KCl): 3.505
- growth OD 620 nm, 80 mM KCl, measurement 3 ([2]; 80 mM KCl): 3.46 and 3.48
- growth OD 620 nm, 80 mM KCl, measurement 4 ([2]; 80 mM KCl): 3.441
- 80 mM KCl (average growth, OD 620 nm) ([2]; 80 mM KCl): 3.5 and 3.52
- Exp. 1 (LacZ luminescence), ASSAY 1 [1, 4]: 357.4
- Exp. 2 (LacZ luminescence), ASSAY 1 [1, 4]: 747.9
- Exp. 3 (LacZ luminescence), ASSAY 1 [1, 4]: 804.6
- Exp. 4 (LacZ luminescence), ASSAY 1 [1, 4]: 585.4
- Mean growth (LacZ luminescence), ASSAY 1 [1, 5]: 623.825
- Exp. 1 (LacZ luminescence), ASSAY 2 [1, 6]: 905
- Exp. 2 (LacZ luminescence), ASSAY 2 [1, 6]: 2176
- Exp. 3 (LacZ luminescence), ASSAY 2 [1, 6]: 496.5
- Exp. 4 (LacZ luminescence), ASSAY 2 [1, 6]: 573.4
- Mean growth (LacZ luminescence), ASSAY 2 [1, 7]: 1037.725
- Exp. 1 (growth, OD620 nm) [3]: 0.004
- Exp. 2 (growth, OD620 nm) [3]: 0.004
- Exp. 3 (growth, OD620 nm) [3]: 0.005
- Exp. 4 (growth, OD620 nm) [3]: 0.005
- Mean growth (OD620 nm) [3]: 0.0045
- complementation of the growth deficiency of the triple mutant by human HERG1 in the presence of the substance [3]: can no longer complement

SMILES: O=C1NCCN1CCN1CCC(c2cn(-c3ccc(F)cc3)c3ccc(Cl)cc23)CC1 [Sertindole, 1-(2-[4-[5-chloro-1-(4-fluorophenyl)-1H-indol-3-yl]-1-piperidinyl]ethyl)-2-imidazolidinone]
- specificity of inhibition of the human HERG1 channel (comparison with wild-type strain) [1]: specific inhibitors
- Exp. 1 (LacZ luminescence), ASSAY 1 [1, 4]: 4165
- Exp. 2 (LacZ luminescence), ASSAY 1 [1, 4]: 2099
- Exp. 3 (LacZ luminescence), ASSAY 1 [1, 4]: 4588
- Exp. 4 (LacZ luminescence), ASSAY 1 [1, 4]: 3069
- Mean growth (LacZ luminescence), ASSAY 1 [1, 5]: 3480.25
- Exp. 1 (LacZ luminescence), ASSAY 2 [1, 6]: 3992
- Exp. 2 (LacZ luminescence), ASSAY 2 [1, 6]: 3076
- Exp. 3 (LacZ luminescence), ASSAY 2 [1, 6]: 3972
- Exp. 4 (LacZ luminescence), ASSAY 2 [1, 6]: 2782
- Mean growth (LacZ luminescence), ASSAY 2 [1, 7]: 3455.5

SMILES: CC(C)(C)c1ccc(C(O)CCCN2CCC(C(O)(c3ccccc3)c3ccccc3)CC2)cc1 (stereo not drawn) [Terfenadine, α-(4-tert-butylphenyl)-4-(α-hydroxy-αphenylbenzyl)-1-piperidinebutanol]
- Exp. 1 (LacZ luminescence), ASSAY 1 [1]: 4497
- Exp. 1 (LacZ luminescence), ASSAY 2 [1]: 3439
- Exp. 2 (LacZ luminescence), ASSAY 1 [1]: 4481
- Exp. 2 (LacZ luminescence), ASSAY 2 [1]: 3795
- Exp. 3 (LacZ luminescence), ASSAY 1 [1]: 5058
- Exp. 3 (LacZ luminescence), ASSAY 2 [1]: 3698
- Exp. 4 (LacZ luminescence), ASSAY 1 [1]: 5381
- Exp. 4 (LacZ luminescence), ASSAY 2 [1]: 3388
- Mean growth (LacZ luminescence), ASSAY 1 [1]: 4854.25
- Mean growth (LacZ luminescence), ASSAY 2 [1]: 3580

SMILES: O=C1Cc2cc(CCN3CCN(c4nsc5ccccc45)CC3)c(Cl)cc2N1 [Ziprasidone, 5-(2-[4-(1,2-benzisothiazol-3-yl)piperazino]-ethyl)-6-chloro-1,3-dihydro-2H-indol-2-one]
- effect on growth of yeast cells at higher potassium concentrations ([2]; 80 mM KCl, FIG. 10): inhibits the growth
- toxic effect on yeast cells (Saccharomyces cerevisiae) ([2]; FIG. 10): has a toxic effect
- growth OD 620 nm, 5 mM KCl, measurement 1 [2]: 0.943
- growth OD 620 nm, 5 mM KCl, measurement 2 [2]: 0.877
- growth OD 620 nm, 5 mM KCl, measurement 3 [2]: 0.675
- growth OD 620 nm, 5 mM KCl, measurement 4 [2]: 0.701
- 5 mM KCl (average growth, OD 620 nm) [2]: 0.799
- growth OD 620 nm, 80 mM KCl, measurement 1 ([2]; 80 mM KCl): 0.836
- growth OD 620 nm, 80 mM KCl, measurement 2 ([2]; 80 mM KCl): 0.681
- growth OD 620 nm, 80 mM KCl, measurement 3 ([2]; 80 mM KCl): 0.717
- growth OD 620 nm, 80 mM KCl, measurement 4 ([2]; 80 mM KCl): 0.606
- 80 mM KCl (average growth, OD 620 nm) ([2]; 80 mM KCl): 0.7 and 0.71
- specificity of inhibition of the human HERG1 channel (comparison with wild-type strain) [1]: rather unspecific inhibitors
- Exp. 1 (LacZ luminescence), ASSAY 1 [1, 4]: 55.32
- Exp. 2 (LacZ luminescence), ASSAY 1 [1, 4]: 70.29
- Exp. 3 (LacZ luminescence), ASSAY 1 [1, 4]: 70.3
- Exp. 4 (LacZ luminescence), ASSAY 1 [1, 4]: 77.18
- Mean growth (LacZ luminescence), ASSAY 1 [1, 5]: 68.2725
- Exp. 1 (LacZ luminescence), ASSAY 2 [1, 6]: 62.52
- Exp. 2 (LacZ luminescence), ASSAY 2 [1, 6]: 44.3
- Exp. 3 (LacZ luminescence), ASSAY 2 [1, 6]: 49.71
- Exp. 4 (LacZ luminescence), ASSAY 2 [1, 6]: 51.87
- Mean growth (LacZ luminescence), ASSAY 2 [1, 7]: 52.1
- Exp. 1 (growth, OD620 nm) [3]: 0.006
- Exp. 2 (growth, OD620 nm) [3]: 0.01
- Exp. 3 (growth, OD620 nm) [3]: 0.012
- Exp. 4 (growth, OD620 nm) [3]: 0.015
- Mean growth (OD620 nm) [3]: 0.01075
- complementation of the growth deficiency of the triple mutant by human HERG1 in the presence of the substance [3]: can no longer complement
